Structures are written as SMILES.

This assay can be described thus: Inhibition of HBV: Determination of 50% inhibitory concentration (EC50) of compounds in […] cells were performed by the following procedure. On the first day, cells were seeded at 30,000 cells per 100 μL well in Biocoat collage coated flat bottom 96 well plates. On the following day, test compounds were solubilized in 100% DMSO to 100× the desired final testing concentration. Each compound was then serially diluted (1:3) up to 9 different concentrations. Compounds in 100% DMSO are reduced to 10% DMSO by diluting 1:10 in assay media. The final DMSO concentration was 1%. The cells were incubated at 37° C. for 72 hours.The antiviral activity was measured using a quantitative kinetic reverse transcription-polymerase chain reaction (RT-PCR) assay directly measuring the HBV viral copy numbers from the supernatant of HepG2.117 cells. EC50 was defined as the concentration of compound at which the HBV viral copy numbers from the HepG2.117 cells was reduced 50% relative to its level in the absence of compound. HBV viral copy numbers are normalized to the level observed in the absence of inhibitor, which was defined as 100%. In kind it is cell-based. On the technique in general: In antiviral work, replicon cells carry a viral genome segment that copies itself.

In the case of `CC(C)OC(=O)OCOP(=O)(COC(C)Cc1ccc2c(N)nc(N)nn12)OCOC(=O)OC(C)C` (centres undefined), the concentration for a half-maximal effect (EC50) (commonly the concentration needed to bring the measured effect to its halfway point) was “in the range around 5500 nM”.

The compound `CC(C)OC(=O)[C@H](C)NP(=O)(CO[C@@H](CF)Cc1cnn2c(N)ncnc12)Oc1ccccc1` (some centres undefined) gave an EC50 of less than 1000 nM. As for `CC(C)OC(=O)OCOP(=O)(CO[C@H](C)Cc1cnc2c(N)ncnn12)OCOC(=O)OC(C)C`, the EC50 is less than 1000 nM.

Turning to `CC(C)OC(=O)OCOP(=O)(COC(C)Cc1ccc2c(=O)[nH]c(N)nn12)OCOC(=O)OC(C)C` (centres undefined), the EC50 was less than 1000 nM.

As to `CC(C)OC(=O)OCOP(=O)(CO[C@H](C)Cc1cnn2c(N)ncnc12)OCOC(=O)OC(C)C`, the EC50 was greater than 100000 nM. As for `Nc1ncnc2c(CC3(OCP(=O)(O)O)CC3)cnn12`, the EC50 entry is “in the range around 55000 nM”. The result for `CC(C)OC(=O)OCOP(=O)(COC(CF)Cc1cnn2c(N)ncnc12)OCOC(=O)OC(C)C` (centres undefined) reads less than 1000 nM. The result for `CC(Cc1cnc2c(=O)[nH]c(N)nn12)OCP(=O)(O)O` (centres undefined) reads less than 1000 nM; that for `CC(C)OC(=O)OCOP(=O)(COCCc1ccc2c(N)ncnn12)OCOC(=O)OC(C)C`, “in the range around 5500 nM”; that for `CC(C)OC(=O)[C@H](C)NP(=O)(CO[C@H](C)Cc1cnc2c(N)ncnn12)Oc1ccccc1` (some centres undefined), less than 1000 nM. For `Nc1ncnn2c(C[C@@H](CF)OCP(=O)(O)O)cnc12` the value was “in the range around 55000 nM”; for `CC(C)OC(=O)OCOP(=O)(CO[C@@H](C)Cc1cnn2c(N)ncnc12)OCOC(=O)OC(C)C`, less than 1000 nM. `Nc1ncnc2c(C[C@H](OCP(=O)(O)O)C(F)F)cnn12`: the concentration for a half-maximal effect (EC50) result is “in the range around 5500 nM”. On to `Nc1ncnc2c(C[C@@H](OCP(=O)(O)O)C(F)F)cnn12`, for which the EC50 entry is “in the range around 5500 nM”. Take `CC(C)OC(=O)OCOP(=O)(CO[C@H](C)Cc1ccc2c(N)ncnn12)OCOC(=O)OC(C)C`: the 50% effective concentration (EC50) was less than 1000 nM. The result for `CC(C)OC(=O)[C@H](C)NP(=O)(CO[C@H](C)Cc1cnn2c(N)ncnc12)Oc1ccccc1` (some centres undefined) reads less than 1000 nM.

With `CC(C)OC(=O)[C@H](C)NP(=O)(CO[C@H](CF)Cc1cnn2c(N)ncnc12)Oc1ccccc1` (some centres undefined), the EC50 was less than 1000 nM.

Compound `CC(C)OC(=O)[C@H](C)NP(=O)(COC(C)Cc1cnc2c(=O)[nH]c(N)nn12)Oc1ccccc1` (some centres undefined) gave an EC50 of less than 1000 nM. For `Nc1ncnn2c(C[C@H](CF)OCP(=O)(O)O)cnc12` the value was less than 1000 nM.

Values taken from ChEMBL document CHEMBL5729391, “Acyclic antivirals” (2022).
